Reference: patent US9440913B2, “Dihydroxybenzene derivatives and antiprotozoal agent comprising same as active ingredient” (NAI INC., priority 2010, dated 2016)

Tests used:
[1] = system: glycerol-3-phosphate-dependent respiration; settings: mitochondrial specimen of T. brucei brucei multiplied in the rat bloodstream; cited from earlier work
T. b. rhodesiense = experiment: Treatment of mice infected with T. b. rhodesiense (cure and survival); assay type: in vivo; settings: for Cured/Infected: i.p., five doses at 6 hour interval
Protocol: Mice were infected with T. b. rhodesiense, a protozoan that causes acute symptoms at 1×10^3 cells/mouse, administration of medication in mice was started 24 hours after the infection, and the mice received five doses of each drug at the dosing interval of 6 hours. Mice were all infected and treated intraperitoneally (i.p). Mice that have no Trypanosomatid protozoan in the blood and survive even 60 days or more after the end of treatment were determined to be cured. Survival days represents an average survival time after treatment in mice that died from infection; therefore, survival days for the group of cured mice are not described in Table 2.

[2] = target: T1, recombinant Trypanosome AOX (TAO) enzyme (Trypanosoma brucei brucei, UniProt Q26710); experiment: TAO enzyme inhibition (quinol oxidase activity, ubiquinol-1 substrate); assay type: biochemical, T. brucei brucei; settings: TAO-expressing E. coli membrane fraction, 25° C., ubiquinol-1, absorbance at 278 nm
T1 construct: made in house; host or cells: Escherichia coli (membrane fraction)
In short: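 E. coli membranes expressing T. brucei brucei TAO (0.35 ng) pre-incubated with inhibitor in 50 mM Tris-HCl pH 7.5, 4 min at 25 °C. Reaction started with ubiquinol-1; quinol oxidation followed as absorbance change at 278 nm.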

T. b. rhodesiense IL1501 = experiment: Antiprotozoal effect, MIC measurement in HMI-9 culture; assay type: cell-based; settings: Trypanosoma brucei, RHODESIENSE, 24 h, bloodstream forms, 18 + 6 hours culture
In short: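 Bloodstream-form T. b. rhodesiense IL1501 were grown in HMI-9 medium at 37° C. with 5% CO2. Three-fold serial drug dilutions from DMSO stocks were made in 96-well plates in HMI-9, with or without glycerol (final 5 mM), and 5×10^4 cells/well added. After 18 hours plus 6 more hours of culture, wells were checked by microscope; MIC was the lowest concentration showing no motile survivors.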

[3] = target: Cryptosporidium cyanide insensitive oxidase (AOX), recombinant protein (cCpAOX) (Cryptosporidium parvum, UniProt Q761U6); experiment: CpAOX enzyme inhibition; assay type: biochemical
From the text: Cryptosporidium has found to have cyanide insensitive oxidase (AOX), and its inhibitory activity was observed using its recombinant protein (cCpAOX) produced in E. coli.

[4] = Glycerol (+), final concentration of glycerol of 5 mM

T1 sequence (Q26710 whole entry): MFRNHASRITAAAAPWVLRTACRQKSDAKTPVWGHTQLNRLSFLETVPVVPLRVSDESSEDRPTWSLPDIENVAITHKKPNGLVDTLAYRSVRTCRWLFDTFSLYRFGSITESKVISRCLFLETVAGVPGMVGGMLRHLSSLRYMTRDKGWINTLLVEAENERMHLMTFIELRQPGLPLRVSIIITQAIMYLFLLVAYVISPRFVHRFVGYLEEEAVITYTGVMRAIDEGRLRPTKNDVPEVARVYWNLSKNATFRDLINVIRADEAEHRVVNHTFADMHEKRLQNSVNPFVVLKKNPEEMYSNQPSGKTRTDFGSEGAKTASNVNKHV
Sequence of Cryptosporidium cyanide insensitive oxidase (AOX), recombinant protein (cCpAOX) (Q761U6 entry or part of it): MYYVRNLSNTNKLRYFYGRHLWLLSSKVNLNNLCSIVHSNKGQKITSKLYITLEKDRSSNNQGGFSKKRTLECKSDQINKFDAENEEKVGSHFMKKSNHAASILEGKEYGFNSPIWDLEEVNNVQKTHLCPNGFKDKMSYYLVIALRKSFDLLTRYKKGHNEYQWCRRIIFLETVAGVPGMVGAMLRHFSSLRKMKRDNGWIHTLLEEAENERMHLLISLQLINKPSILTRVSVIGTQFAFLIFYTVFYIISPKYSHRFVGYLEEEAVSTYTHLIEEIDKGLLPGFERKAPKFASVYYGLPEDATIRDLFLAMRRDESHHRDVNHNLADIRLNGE

Structure (SMILES) | absolute amounts of 50% inhibition [1] | Cured/Infected (T. b. rhodesiense; Glycerol dose 1.25 g/kg) | IC50 [2] [nM] | MIC (T. b. rhodesiense IL1501; [4]) [nM] | MIC (T. b. rhodesiense IL1501; Glycerol (−)) [nM] | also measured
C/C(=C\Cc1c(O)c(Cl)c(C)c(C=O)c1O)CC/C=C(\C)[C@@H]1CC(=O)C(C)(C)O1 (racemic) [Ascofuranone, dl-5-Chloro-2,4-dihydroxy-6-methyl-3-[(2E,6E)-3-methyl-7-(3,3-dimethyl-4-oxo-2-oxacyclopentyl)-2,6-octadienyl]benzaldehyde] | 25 pmol/mg protein | 5/5 | – | – | – | Survival days (T. b. rhodesiense; Glycerol dose 0, average survival time after treatment in mice that died from infection): 12 days; Cured/Infected (T. b. rhodesiense; Glycerol dose 0, start 24 hours after infection, cured = no protozoan in blood and survival 60 days or more): 0/5; Survival days (T. b. rhodesiense; Glycerol dose 50 mg/kg, average survival time of mice that died from infection): 12 days; Cured/Infected (T. b. rhodesiense; Glycerol dose 50 mg/kg): 0/5; Survival days (T. b. rhodesiense; Glycerol dose 750 mg/kg, average survival time of mice that died from infection): 21 days; Cured/Infected (T. b. rhodesiense; Glycerol dose 750 mg/kg): 2/3
CCCC[C@H]1C(=O)O[C@H](C)[C@H](NC(=O)c2cccc(NC=O)c2O)C(=O)O[C@@H](C)[C@@H]1OC(=O)CC(C)C [Antimycin A3] | 48,600 pmol/mg protein | – | – | – | – | –
C/C(=C\Cc1c(O)c(Cl)c(C)c(C=O)c1O)CC/C=C(\C)COC(=O)C(C)(C)C [Compound 234-12-OPiv, (2E,6E)-8-(3-Chloro-5-formyl-2,6-dihydroxy-4-methylphenyl)-2,6-dimethyl-2,6-octadienyl pivalate] | – | 5/5 | 0.4 | 0.031 | 0.39 | –
C/C(=C\Cc1c(O)c(Cl)c(C)c(C=O)c1O)CC/C=C(\C)C(C)O (stereo not shown) [Compound 277-9-OH] | – | 4/4 | 0.48 | 0.048 | 74 | IC50 [3]: 2.5 nM
CC(=O)OC(C)/C(C)=C/CC/C(C)=C/Cc1c(O)c(Cl)c(C)c(C=O)c1O (stereo not shown) [Compound 277-11-OAc, (3E,7E)-9-(3-Chloro-5-formyl-2,6-dihydroxy-4-methyl)phenyl-3,7-dimethyl-3,7-nonadie2-yl acetate] | – | 4/4 | 1.2 | 0.082 | 2.3 | IC50 [3]: 1.5 nM
CO/C(=C/C(N)=O)[C@H](C)[C@H](/C=C/c1csc(-c2csc([C@@H](C)/C=C/C=C/C(C)C)n2)n1)OC [myxothiazol] | 21,500 pmol/mg protein | – | – | – | – | –
C/C=C(C)/C=C/C=C/[C@H](OC)[C@@H](C)[C@@H](OC)[C@@H](C)CCc1oc2c(O)c(OC)cc(OC)c2c(=O)c1C [stigmatellin] | 18,600 pmol/mg protein | – | – | – | – | –
